Type in all cases: biochemical
The subject of data set [1] is panel of 20 tyrosine protein kinases of immune cells. The settings on record: concentration a hundred-fold higher than the IC50 for inhibition of α4β1 integrin (0.1 mM). The procedure:
(§1) Kinase activity was measured using the PhosphoSenstechnology (AssayQuant Technologies Inc., Marlborough, MA) as detailed in the Supporting Information. […]
(§2) Visabron c (4-4) safety by in vitro evaluation using PhosphoSens - CSox based kinase assays:
(§3) A powerful method was used to measure the activity of recombinant protein kinases using a homogeneous and continuous (kinetic) format, where the level of chelation-enhanced fluorescence (CHEF) that is directly proportional to the amount of phosphorylated, real-time sensors consisting of sulfonamido-oxine (Sox) chromophore, linked to a peptide or protein substrates of selective kinases 6. […]
(§4) Kinase activity measurements: Kinase activity was measured continuously using the PhosphoSens® technology (AssayQuant Technologies Inc., Marlborough, MA) according to the manufacturers’ recommendations. This one-step homogeneous assay format uses chelation -enhanced fluorescence via optimized substrate sensors containing the unnatural fluorogenic amino -acid Sox. […]
(§5) Final reaction conditions : Protein kinase activity was determined in 54 mM HEPES, pH 7.5, 1 mM ATP, 1.2 mM DTT, 0.012% Brij-35, 0.52 mM EGTA, 10 mM MgCl2, 1% glycerol, 0.2mg/ml BSA, and 15 μM Sox -based sensor. […]

Another data set has as its target T1, JAK3 (Homo sapiens, UniProt P52333).
T1 construct: purchased Carna 08-046
Kind of data set: PhosphoSens CSox-based kinase assay, JAK3. The conditions noted are these: 1 mM, but not 0.1 mM; Figure 7. The procedure: as §1, §2, §3, §4, §5

The next data set has as its target T2, Lck kinase (Homo sapiens, UniProt P06239).
T2 construct: purchased Eurofins Cerep-Panlabs (contract screen) SafetyScreen44
Kind of data set: SafetyScreen44 enzyme inhibition, Lck kinase. The procedure:
Screening of potentially significant off-target effects to binding and enzyme targets was performed via SafetyScreen44 offered by Eurofins Cerep-Panlabs. Visabron c (4–4) was tested at 1 and 0.1 mM. Compound binding was calculated as the percentage of inhibition of the binding of a radioactively labeled ligand specific for each target. The compound enzyme inhibitory effect was calculated as the percentage of inhibition of control enzyme activity. Results showing inhibition higher than 40% were considered to represent significant effects of the tested compound. Results showing inhibition lower than 25% as obtained with 0.1 mM Visabron c (4–4) were not considered significant and were mostly attributable to the variability of the signal around the control level. In each experiment, the respective reference compound was tested concurrently with visabron c (4–4), and the data were compared with historical values determined at Eurofins. The experiment was statistically accepted in accordance with the Eurofins validation standard operating procedure.

Experimental findings from PMC8717366, “Synthesis and Pharmacological Characterization of Visabron, a Backbone Cyclic Peptide Dual Antagonist of α4β1 (VLA-4)/α9β1 Integrin for Therapy of Multiple Sclerosis” (JACS Au, 2021) are described below.

The structures appear in SMILES notation. Numbered stars: 1 amine (or outer) side, 2 acyl side, 3 side chain; on linkers, the order of the positions; unused ones are H or OH. Bridge positions count the residues as written; N and C are the ends. Square brackets hold non-standard residues; d marks the D form. Peptide text beside a SMILES is read from it. CO = O=C([*:1])[*:2]; Nlys = NCCCCNCC(=O)O

T2 sequence (P06239 whole entry): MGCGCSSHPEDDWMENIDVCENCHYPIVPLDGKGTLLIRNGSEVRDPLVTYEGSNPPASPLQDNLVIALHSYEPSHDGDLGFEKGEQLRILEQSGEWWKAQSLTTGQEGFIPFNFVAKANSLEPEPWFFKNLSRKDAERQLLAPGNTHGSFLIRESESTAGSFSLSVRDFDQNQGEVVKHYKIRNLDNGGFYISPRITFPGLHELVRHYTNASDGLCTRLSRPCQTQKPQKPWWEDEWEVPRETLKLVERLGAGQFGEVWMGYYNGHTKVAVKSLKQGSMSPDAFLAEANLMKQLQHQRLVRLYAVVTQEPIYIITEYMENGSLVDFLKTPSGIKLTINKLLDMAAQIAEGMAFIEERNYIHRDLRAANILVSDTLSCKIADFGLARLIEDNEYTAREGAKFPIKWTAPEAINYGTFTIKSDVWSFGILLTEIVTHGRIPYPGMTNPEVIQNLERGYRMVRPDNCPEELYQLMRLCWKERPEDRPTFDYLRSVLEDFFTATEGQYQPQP
T1 sequence (P52333 whole entry): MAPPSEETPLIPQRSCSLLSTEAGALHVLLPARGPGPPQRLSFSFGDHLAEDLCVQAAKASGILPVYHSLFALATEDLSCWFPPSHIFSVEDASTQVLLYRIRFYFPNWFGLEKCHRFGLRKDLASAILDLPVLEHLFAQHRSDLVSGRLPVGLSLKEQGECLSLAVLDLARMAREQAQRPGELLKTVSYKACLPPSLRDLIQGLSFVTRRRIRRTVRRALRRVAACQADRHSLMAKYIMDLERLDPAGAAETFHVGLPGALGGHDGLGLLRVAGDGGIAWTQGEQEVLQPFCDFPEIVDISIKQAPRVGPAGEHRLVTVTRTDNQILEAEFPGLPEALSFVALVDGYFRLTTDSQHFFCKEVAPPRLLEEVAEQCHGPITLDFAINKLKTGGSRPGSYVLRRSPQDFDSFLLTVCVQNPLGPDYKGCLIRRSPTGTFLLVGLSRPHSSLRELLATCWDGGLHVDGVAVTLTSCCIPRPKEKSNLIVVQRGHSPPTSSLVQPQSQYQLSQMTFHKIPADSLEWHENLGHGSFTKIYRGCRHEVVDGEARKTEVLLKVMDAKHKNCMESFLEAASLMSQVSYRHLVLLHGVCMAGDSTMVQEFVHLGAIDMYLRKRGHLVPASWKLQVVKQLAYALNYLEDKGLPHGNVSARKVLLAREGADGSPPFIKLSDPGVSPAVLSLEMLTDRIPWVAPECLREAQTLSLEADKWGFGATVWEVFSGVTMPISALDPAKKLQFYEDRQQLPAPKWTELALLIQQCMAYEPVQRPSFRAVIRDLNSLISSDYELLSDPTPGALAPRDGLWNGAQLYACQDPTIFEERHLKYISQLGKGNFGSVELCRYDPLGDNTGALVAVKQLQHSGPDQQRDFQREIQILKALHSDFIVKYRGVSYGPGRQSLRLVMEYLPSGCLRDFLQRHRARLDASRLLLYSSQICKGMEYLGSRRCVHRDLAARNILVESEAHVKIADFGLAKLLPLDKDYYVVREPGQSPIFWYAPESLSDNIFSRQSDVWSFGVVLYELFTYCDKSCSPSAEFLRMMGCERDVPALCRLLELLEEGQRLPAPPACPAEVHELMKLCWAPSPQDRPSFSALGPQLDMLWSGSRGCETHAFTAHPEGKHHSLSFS

As for `CSCC[C@@H]1NC(=O)[C@H]([C@@H](C)O)NC(=O)CN(C(=O)[C@@H](N)CCCCN)CCCCNC(=O)NCCCCN(CC(=O)N[C@@H](CC(C)C)C(N)=O)C(=O)[C@H](CC(=O)O)NC(=O)[C@H](CC(C)C)NC1=O` [visabron c (4–4)] (H-K[Nlys]TMLD[Nlys]L-NH2; linker 2-7 via CO), the “Targeting of leukocyte tyrosine protein kinases” value in data set [1] is reported as “did not target”. Also, the inhibition at 1000 µM at JAK3 was 25 to 40%. In addition, on Lck kinase (100 μM, data not shown), the “Inhibitory effect on Lck” value is on record as “not observed”. Also, the “Inhibition of Lck kinase activity” value at Lck kinase (1 mM, Figure 6) is “strongly inhibited”.
